Source: ChEMBL document CHEMBL5390208, “Bioactive Isoquinoline Alkaloids with Diverse Skeletons from Fissistigma polyanthum” (J Nat Prod, 2023)
Activity calls are given as the source filed them. The rule behind the calls is not given here.

Tests used:
Acetylcholinesterase = Acetylcholinesterase (Homo sapiens, UniProt P22303); experiment: Inhibition of AChE (unknown origin) using ATCI as substrate preincubated for 15 min followed by substrate addition measured after 40 min by Ellman's method
Cholinesterase = Cholinesterase (Homo sapiens, UniProt P06276); experiment: Inhibition of BChE (unknown origin) using BTCI as substrate preincubated for 15 min followed by substrate addition measured after 40 min by Ellman's method
Cholinesterase, sequence (P06276 whole entry): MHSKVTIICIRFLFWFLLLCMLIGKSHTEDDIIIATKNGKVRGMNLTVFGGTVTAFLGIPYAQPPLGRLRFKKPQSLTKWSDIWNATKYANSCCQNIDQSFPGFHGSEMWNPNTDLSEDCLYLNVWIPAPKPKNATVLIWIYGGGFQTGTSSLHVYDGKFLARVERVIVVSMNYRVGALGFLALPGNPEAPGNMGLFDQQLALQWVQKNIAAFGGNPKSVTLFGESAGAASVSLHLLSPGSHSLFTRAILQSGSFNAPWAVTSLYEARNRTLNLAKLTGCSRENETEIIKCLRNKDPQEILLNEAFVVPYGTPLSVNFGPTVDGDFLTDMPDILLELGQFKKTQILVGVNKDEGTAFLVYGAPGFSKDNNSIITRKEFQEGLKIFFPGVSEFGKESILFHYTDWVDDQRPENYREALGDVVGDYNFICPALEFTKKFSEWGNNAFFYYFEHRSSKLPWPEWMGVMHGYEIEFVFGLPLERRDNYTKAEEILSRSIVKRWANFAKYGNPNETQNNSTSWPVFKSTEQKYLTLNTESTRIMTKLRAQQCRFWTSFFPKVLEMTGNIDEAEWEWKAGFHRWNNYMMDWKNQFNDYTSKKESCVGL

[1] = Selectivity ratio, ratio of inhibition of BChE (unknown origin) to inhibition of AChE (unknown origin)
[2] = target: T1, Amyloid-beta precursor protein (Homo sapiens, UniProt P05067); experiment: Inhibition of amyloid beta 42 (unknown origin) aggregation at 50 uM incubated for 24 hrs by ThT assay relative to control
T1 sequence (P05067 whole entry): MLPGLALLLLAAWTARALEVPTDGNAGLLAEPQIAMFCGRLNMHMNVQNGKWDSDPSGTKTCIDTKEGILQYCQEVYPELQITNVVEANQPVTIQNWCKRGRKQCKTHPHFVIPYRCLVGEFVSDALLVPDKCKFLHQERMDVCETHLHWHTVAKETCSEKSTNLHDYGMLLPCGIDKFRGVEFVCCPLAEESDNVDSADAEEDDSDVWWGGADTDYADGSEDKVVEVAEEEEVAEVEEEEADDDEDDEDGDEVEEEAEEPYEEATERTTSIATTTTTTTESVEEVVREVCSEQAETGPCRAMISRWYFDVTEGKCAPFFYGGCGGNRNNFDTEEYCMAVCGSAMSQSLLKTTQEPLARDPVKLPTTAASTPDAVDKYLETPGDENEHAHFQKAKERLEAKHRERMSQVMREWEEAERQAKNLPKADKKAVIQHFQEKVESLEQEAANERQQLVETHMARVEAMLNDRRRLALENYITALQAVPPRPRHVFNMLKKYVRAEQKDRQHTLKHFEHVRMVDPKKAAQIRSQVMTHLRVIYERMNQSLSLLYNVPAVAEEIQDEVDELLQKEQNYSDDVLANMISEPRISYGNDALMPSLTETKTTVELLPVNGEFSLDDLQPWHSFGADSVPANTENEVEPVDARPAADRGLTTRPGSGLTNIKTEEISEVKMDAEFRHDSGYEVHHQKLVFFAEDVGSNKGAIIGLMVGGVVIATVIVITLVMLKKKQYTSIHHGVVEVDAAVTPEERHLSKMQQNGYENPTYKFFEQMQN

[3] = target: T1, Amyloid-beta precursor protein; experiment: Inhibition of amyloid beta 42 (unknown origin) aggregation incubated for 24 hrs by ThT assay
[4] = Antioxidant activity assessed as ABTS radical scavenging activity incubated for 10 min by spectrophotometric analysis; type: functional
[5] = target: T1, Amyloid-beta precursor protein; experiment: Inhibition of amyloid beta 42 (unknown origin) aggregation assessed as reduction in amyloid beta fibril formation incubated for 72 hrs by Congo Red dye based UV- spectrophotometric analysis

Acetylcholinesterase, sequence (P22303 whole entry): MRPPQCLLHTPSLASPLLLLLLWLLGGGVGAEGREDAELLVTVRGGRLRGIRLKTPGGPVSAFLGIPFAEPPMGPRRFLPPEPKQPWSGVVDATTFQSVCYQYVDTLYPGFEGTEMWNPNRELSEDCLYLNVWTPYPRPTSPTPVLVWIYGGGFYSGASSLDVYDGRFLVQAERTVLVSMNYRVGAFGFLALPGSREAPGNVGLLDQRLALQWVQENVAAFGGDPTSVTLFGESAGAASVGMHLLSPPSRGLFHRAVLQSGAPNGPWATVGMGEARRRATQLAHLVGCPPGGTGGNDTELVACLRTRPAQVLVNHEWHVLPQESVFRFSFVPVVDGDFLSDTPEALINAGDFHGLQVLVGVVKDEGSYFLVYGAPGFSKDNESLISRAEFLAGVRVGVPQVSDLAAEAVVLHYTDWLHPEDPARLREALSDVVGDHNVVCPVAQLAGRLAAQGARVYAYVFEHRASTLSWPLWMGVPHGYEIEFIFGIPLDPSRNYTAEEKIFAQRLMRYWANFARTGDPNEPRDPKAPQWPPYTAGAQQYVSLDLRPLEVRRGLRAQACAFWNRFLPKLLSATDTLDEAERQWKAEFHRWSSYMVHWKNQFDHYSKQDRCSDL

With COc1ccc(C[C@H]2c3c(ccc(OC)c3O)CCN2C)cc1 the IC50 (Acetylcholinesterase) was 25.6 µM, the IC50 (Cholinesterase) was 33 µM and the Ratio IC50 [1] was 1.3. It also gave an inhibition [2] of 26.6%, an IC50 [3] greater than 50 µM and an IC50 [4] of 38.3 µM.

Work on COc1cc(O)c2c(c1)C[C@@H]1c3c(cc4c(c3-2)OCO4)CCN1C yielded an IC50 (Acetylcholinesterase) of 85 µM, an IC50 (Cholinesterase) of 94.5 µM and a Ratio IC50 [1] of 1.1. It also gave an inhibition [2] of 15.1%, an IC50 [3] greater than 50 µM and an IC50 [4] of 14.8 µM.

COC1=C(CC(=O)CCc2ccccc2)C(=O)O[C@@H]1O gave an IC50 (Acetylcholinesterase) greater than 300 µM, an IC50 (Cholinesterase) greater than 300 µM and an inhibition [2] of 74.4%. The inhibition [5] was “Active”, the IC50 [3] was 26.6 µM and the IC50 [4] was greater than 50 µM.

Work on COc1cc2c(cc1O)CC[n+]1cc3c(OC)c(O)ccc3cc1-2 yielded an IC50 (Acetylcholinesterase) of 17.8 µM, an IC50 (Cholinesterase) of 119 µM and a Ratio IC50 [1] of 6.7. The inhibition [2] was 30%, the IC50 [3] was 50 µM and the IC50 [4] was 26.5 µM.

For COc1ccc2c(c1)C(=O)c1nccc3cc4c(c-2c13)OCO4 [ATHEROSPERMIDINE], the IC50 (Acetylcholinesterase) was 10.9 µM, the IC50 (Cholinesterase) was greater than 300 µM and the Ratio IC50 [1] was greater than 27.5. The inhibition [2] was 86.2%, the inhibition [5] was “Active” and the IC50 [3] was 31.9 µM. The IC50 [4] was greater than 50 µM.

With COc1cc(O)c2c(c1)C[C@H]1NCCc3c(OC)c4c(c-2c31)OCO4 the IC50 (Acetylcholinesterase) was 162 µM, the IC50 (Cholinesterase) was 141 µM and the Ratio IC50 [1] was 0.9. For the same molecule, the inhibition [2] was 44.5%, the IC50 [3] was greater than 50 µM and the IC50 [4] was 13.5 µM.

With COC1=CC(=O)c2c(cc3c4c(cc5c(c24)OCO5)CCN3C)C1=O the IC50 (Acetylcholinesterase) was 221 µM, the IC50 (Cholinesterase) was 83.5 µM and the Ratio IC50 [1] was 0.4. The inhibition [2] was 30.7%, the IC50 [3] was greater than 50 µM and the IC50 [4] was greater than 50 µM.

For COc1cc2c(cc1OC)[C@@H]1Cc3ccc(O)c(OC)c3CN1CC2, the IC50 (Acetylcholinesterase) was 211 µM, the IC50 (Cholinesterase) was 124 µM and the Ratio IC50 [1] was 0.6. For the same molecule, the inhibition [2] was 10.7%, the IC50 [3] was greater than 50 µM and the IC50 [4] was greater than 50 µM.

With COc1cc2c(c(O)c1OC)CC[N@+]1(C)Cc3c(ccc(O)c3OC)C[C@@H]21 the IC50 (Acetylcholinesterase) was 131 µM, the IC50 (Cholinesterase) was greater than 300 µM and the Ratio IC50 [1] was greater than 2.3. For the same molecule, the inhibition [2] was “inactive” and the IC50 [4] was 43.6 µM.

In the case of COc1cc(O)c2c(c1)C[C@H]1NCCc3cc4c(c-2c31)OCO4, the IC50 (Acetylcholinesterase) is reported as greater than 300 µM, the IC50 (Cholinesterase) is reported as greater than 300 µM and the inhibition [2] is reported as 10.2%. The IC50 [3] was greater than 50 µM and the IC50 [4] was greater than 50 µM.

COc1cc(O)c2c(c1)C[C@@H]1c3c(cc4c(c3-2)OCO4)CC[N@+]1(C)[O-] gave an IC50 (Acetylcholinesterase) greater than 300 µM, an IC50 (Cholinesterase) greater than 300 µM and an inhibition [2] of 37.9%. The IC50 [3] was greater than 50 µM and the IC50 [4] was 9.9 µM.

Molecule COc1ccc2c(c1)C[C@@H]1c3c(cc4c(c3-2)OCO4)CCN1C has an IC50 (Acetylcholinesterase) of 26.2 µM, an IC50 (Cholinesterase) of 36.4 µM and a Ratio IC50 [1] of 1.4. For the same molecule, the inhibition [2] was 38.2%, the IC50 [3] was greater than 50 µM and the IC50 [4] was greater than 50 µM.

COc1cc2c(c(O)c1OC)CCN1Cc3c(ccc(O)c3OC)C[C@@H]21 showed an IC50 (Acetylcholinesterase) of 89 µM, an IC50 (Cholinesterase) greater than 300 µM and a Ratio IC50 [1] greater than 3.4. The inhibition [2] was “inactive” and the IC50 [4] was greater than 50 µM.

Work on COc1cc2c(c(O)c1OC)CC[n+]1cc3c(OC)c(O)ccc3cc1-2 yielded an IC50 (Acetylcholinesterase) of 16.4 µM, an IC50 (Cholinesterase) greater than 300 µM and a Ratio IC50 [1] greater than 18.3. For the same molecule, the inhibition [2] was “inactive” and the IC50 [4] was greater than 50 µM.

Cc1c(C)c2c(c(C)c1O)CCC(C)(C(=O)O)O2 (stereo unspecified) [TROLOX] showed an IC50 [4] of 11 µM.

O=C1C(=O)N2CCc3cc4c(c5c3c2c1c1ccccc15)OCO4 gave an IC50 (Acetylcholinesterase) of 51.3 µM, an IC50 (Cholinesterase) of 13.7 µM and a Ratio IC50 [1] of 0.3. It also gave an inhibition [2] of 47.6%, an IC50 [3] greater than 50 µM and an IC50 [4] greater than 50 µM.

COc1ccc2c(c1OC)c1c3c4c(cc5c(c42)OCO5)CCN3C(=O)C1=O gave an IC50 (Acetylcholinesterase) of 33 µM, an IC50 (Cholinesterase) of 251 µM and a Ratio IC50 [1] of 7.6. For the same molecule, the inhibition [2] was 10.9%, the IC50 [3] was greater than 50 µM and the IC50 [4] was greater than 50 µM.

Work on COc1cc(O)cc2c1-c1c3c(cc4c1[C@@H](C2)N(C)CC4)OCO3 yielded an IC50 (Acetylcholinesterase) greater than 300 µM, an IC50 (Cholinesterase) greater than 300 µM and an inhibition [2] of 76%. The inhibition [5] was “Active”, the IC50 [3] was 35.7 µM and the IC50 [4] was 16.5 µM.

For COc1ccc2c(c1)C[C@H]1NCCc3cc4c(c-2c31)OCO4, the IC50 (Acetylcholinesterase) was 126 µM, the IC50 (Cholinesterase) was 68.5 µM and the Ratio IC50 [1] was 0.5. The inhibition [2] was 28%, the IC50 [3] was greater than 50 µM and the IC50 [4] was greater than 50 µM.

COc1cc2c(cc1O)[C@@H]1Cc3ccc(OC)c(O)c3CN1CC2 [SCOULERINE] gave an IC50 (Acetylcholinesterase) of 143 µM, an IC50 (Cholinesterase) of 61.3 µM and a Ratio IC50 [1] of 0.4. For the same molecule, the inhibition [2] was 3.3%, the IC50 [3] was greater than 50 µM and the IC50 [4] was 43.8 µM.

For COc1cc(O)c2c(c1)C[C@@H]1c3c(cc4c(c3-2)OCO4)CC[N@@+]1(C)[O-], the IC50 (Acetylcholinesterase) was greater than 300 µM, the IC50 (Cholinesterase) was greater than 300 µM and the inhibition [2] was 32.8%. The IC50 [3] was greater than 50 µM and the IC50 [4] was greater than 50 µM.
